Structures are written as SMILES. A value given as a limit tells only on which side of the number the result lay.

As a reminder, the IC50 is the point on the concentration scale where inhibition reaches its midpoint.

Plasma Kallikrein, sequence (P03952 391-638): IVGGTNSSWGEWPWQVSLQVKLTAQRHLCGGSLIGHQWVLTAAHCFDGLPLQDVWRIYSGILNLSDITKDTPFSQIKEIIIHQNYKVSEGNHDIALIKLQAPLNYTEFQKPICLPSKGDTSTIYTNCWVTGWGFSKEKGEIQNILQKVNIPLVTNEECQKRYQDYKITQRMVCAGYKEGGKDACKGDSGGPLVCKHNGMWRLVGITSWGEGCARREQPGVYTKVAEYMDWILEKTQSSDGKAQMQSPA
Plasma Kallikrein, sequence (P03952 20-390 partner): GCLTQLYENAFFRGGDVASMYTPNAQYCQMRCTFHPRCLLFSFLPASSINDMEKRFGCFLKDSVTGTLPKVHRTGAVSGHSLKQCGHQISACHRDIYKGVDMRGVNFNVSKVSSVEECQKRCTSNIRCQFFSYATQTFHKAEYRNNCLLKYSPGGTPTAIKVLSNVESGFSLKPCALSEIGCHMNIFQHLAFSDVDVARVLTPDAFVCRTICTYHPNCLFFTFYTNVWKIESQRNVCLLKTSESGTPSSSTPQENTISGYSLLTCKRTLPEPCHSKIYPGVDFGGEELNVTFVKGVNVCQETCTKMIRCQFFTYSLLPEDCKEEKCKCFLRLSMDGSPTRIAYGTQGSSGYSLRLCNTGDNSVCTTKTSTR
Human Factor XIIa, sequence (P00748 373-615): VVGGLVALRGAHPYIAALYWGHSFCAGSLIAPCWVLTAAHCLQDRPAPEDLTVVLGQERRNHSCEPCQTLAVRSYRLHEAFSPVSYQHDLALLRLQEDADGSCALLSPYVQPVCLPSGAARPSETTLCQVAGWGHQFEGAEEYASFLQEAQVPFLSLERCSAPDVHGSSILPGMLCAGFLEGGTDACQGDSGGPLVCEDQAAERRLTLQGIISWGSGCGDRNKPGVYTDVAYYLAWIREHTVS

The first test deals with Human Factor XIIa (Homo sapiens (Human), UniProt P00748). The test is described as follows: Determination of FXIIa inhibition (fluorogenic substrate H-DPro-Phe-Arg-AFC, IC50 assay). It is filed as biochemical. The note with it: substrate H-DPro-Phe-Arg-AFC at Km, 25° C.; class scale A-G. Summed up:
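Human FXIIa incubated at 25° C with fluorogenic substrate H-DPro-Phe-Arg-AFC at its Km concentration and varying compound concentrations. Fluorescence release monitored over 5 min at 25° C; linear rate expressed as % of uninhibited activity to derive IC50.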
Compound `CN1CCC(COc2cc(CNc3cccc4c(N)nccc34)ccn2)CC1=O` (stereo not drawn) [Example 4417, 4-{[(4-{[(1-aminoisoquinolin-5-yl)amino]methyl}pyridin-2-yl)oxy]methyl}-1-methylpiperidin-2-one] had an IC50 of 300 to 1000 nM.

For the compound `CN1C[C@@H]2C(COc3cc(CNc4cccc5c(N)nccc45)ccn3)[C@@H]2C1` (stereo partly drawn) [Example 4418, 5-N-[(2-{[(1R,5S)-3-methyl-3-azabicyclo[3.1.0]hexan-6-yl]methoxy}pyridin-4-yl)methyl]isoquinoline-1,5-diamine], the IC50 fell in the range of 300 to 1000 nM. `CN1CCC(COc2cc(CN(C)c3cccc4c(N)nccc34)ccn2)CC1` [Example 4419, N5-methyl-N5-((2-((1-methylpiperidin-4-yl)methoxy)pyridin-4-yl)methyl)isoquinoline-1,5-diamine] had an IC50 of 3000 to 10000 nM.

Regarding `Cn1ccnc1CCCOc1cc(CNc2ccc3c(N)nccc3c2)ccn1` [Example 4420, 6-N-({2-[3-(1-methylimidazol-2-yl)propoxy]pyridin-4-yl}methyl)isoquinoline-1,6-diamine], the IC50 lay in the range of 1000 to 3000 nM. In turn, `Cn1ccnc1CCCOc1cc(CNc2cccc3c(N)nccc23)ccn1` [Example 4421, 5-N-({2-[3-(1-methylimidazol-2-yl)propoxy]pyridin-4-yl}methyl)isoquinoline-1,5-diamine] displayed a half-inhibitory concentration (IC50) of 300 to 1000 nM. `Cn1ccnc1COc1cc(CNc2ccc3c(N)nccc3c2)ccn1` [Example 4422, 6-N-({2-[(1-methylimidazol-2-yl)methoxy]pyridin-4-yl}methyl)isoquinoline-1,6-diamine] showed an IC50 of 3000 to 10000 nM. As to `Cn1ccnc1COc1cc(CNc2cccc3c(N)nccc23)ccn1` [Example 4423, N5-((2-((1-methyl-1H-imidazol-2-yl)methoxy)pyridin-4-yl)methyl)isoquinoline-1,5-diamine], the IC50 fell in the range of 3000 to 10000 nM. For the compound `CN1CCC(C)(COc2cc(CNc3cccc4c(N)nccc34)ccn2)CC1` [Example 4424, N5-((2-((1,4-dimethylpiperidin-4-yl)methoxy)pyridin-4-yl)methyl)isoquinoline-1,5-diamine], the IC50 was 100 to 300 nM. The compound `CN1CCC(C)(COc2cc(CNc3ccc4c(N)nccc4c3)ccn2)CC1` [Example 4425, 6-N-({2-[(1,4-dimethylpiperidin-4-yl)methoxy]pyridin-4-yl}methyl)isoquinoline-1,6-diamine] showed an IC50 of 300 to 1000 nM.

As to `Nc1nccc2cc(NCc3ccnc(N4CCn5c(nnc5C(F)(F)F)C4)c3)ccc12` [Example 4471, N6-((2-(3-(trifluoromethyl)-5,6-dihydro-[1,2,4]triazolo[4,3-a]pyrazin-7(8H)-yl)pyridin-4-yl)methyl)isoquinoline-1,6-diamine], the IC50 lay within 10000 to 40000 nM. Compound `Nc1nccc2c(NCc3ccnc(N4CCn5c(nnc5C(F)(F)F)C4)c3)cccc12` [Example 4472, N5-((2-(3-(trifluoromethyl)-5,6-dihydro-[1,2,4]triazolo[4,3-a]pyrazin-7(8H)-yl)pyridin-4-yl)methyl)isoquinoline-1,5-diamine] registered an IC50 of 1000 to 3000 nM. The compound `Nc1nccc2c(NCc3cc(N4CCn5c(nnc5C(F)(F)F)C4)cs3)cccc12` [Example 8459, N5-((4-(3-(Trifluoromethyl)-5,6-dihydro-[1,2,4]triazolo[4,3-a]pyrazin-7(8H)-yl)thiophen-2-yl)methyl)isoquinoline-1,5-diamine] returned an IC50 of 100 to 300 nM. As to `Cc1cc(N2CCn3c(nnc3C(F)(F)F)C2C)cnc1CNc1cccc2c(N)nccc12` (stereo not drawn) [Example 9007, N5-((3-methyl-5-(8-methyl-3-(trifluoromethyl)-5,6-dihydro-[1,2,4]triazolo[4,3-a]pyrazin-7(8H)-yl)pyridin-2-yl)methyl)isoquinoline-1,5-diamine], the 50% inhibitory concentration (IC50) lay within 10 to 100 nM. `CC1c2nnc(C(F)(F)F)n2CCN1c1cnc(CNc2cccc3c(N)nccc23)c(F)c1` (stereo not drawn) [Example 9008, N5-((3-fluoro-5-(8-methyl-3-(trifluoromethyl)-5,6-dihydro-[1,2,4]triazolo[4,3-a]pyrazin-7(8H)-yl)pyridin-2-yl)methyl)isoquinoline-1,5-diamine] yielded a 50% inhibitory concentration (IC50) of 10 to 100 nM.

A further test concerns the target Plasma Kallikrein (Homo sapiens (Human), UniProt P03952). The test is described as follows: Determination of related protease inhibition: Plasma Kallikrein (fluorogenic substrate at Km). It is filed as biochemical. The note with it: 25° C., read-out: IC50 (human PKal). Here is the method:
Determination of Related Protease Inhibition
In vitro inhibition of related proteases was determined using an ([…] assay based on standard literature methods (see e.g. Shori et al., Biochem. Pharmacol., 1992, 43, 1209; Bouckaert et al., European Journal of Medicinal Chemistry 110 (2016) 181). Human serine protease enzymes Plasma Kallikrein, KLK1, FXa, Plasmin, Thrombin and Trypsin were assayed for enzymatic activity using an appropriate fluorogenic substrate at Km concentration, FXIa at fixed substrate concentration of 100 μM, and various concentrations of the test compound. Protease activity was measured by monitoring the accumulation of liberated fluorescence from the substrate over […]. The linear rate of fluorescence increase per minute was expressed as percentage (%) activity. IC50 values were calculated as the concentration of inhibitor giving 50% inhibition of the uninhibited enzyme activity (100%).
In the case of `CN1CCC(CNc2ccc(CNc3cnn(-c4cccc(Cl)c4)c3)cn2)CC1` [Example 1116, 5-(((1-(3-chlorophenyl)-1H-pyrazol-4-yl)amino)methyl)-N-((1-methylpiperidin-4-yl)methyl)pyridin-2-amine], the 50% inhibitory concentration (IC50) is > 100 µM. Same read-out and setting: the same measure for `Nc1ncc(Cl)c2cc(NCc3ccc(N4CCn5nccc5C4)nc3)ccc12` [Example 1157, 4-chloro-N6-((6-(6,7-dihydropyrazolo[1,5-a]pyrazin-5(4H)-yl)pyridin-3-yl)methyl)isoquinoline-1,6-diamine]: > 40 µM; for `COc1ccc2ncc(NCc3ccc(NCC4CCN(C)CC4)nc3)cc2c1` [Example 1177, 6-methoxy-N-((6-(((1-methylpiperidin-4-yl)methyl)amino)pyridin-3-yl)methyl)quinolin-3-amine]: > 100 µM. In the case of `COc1cccc2ccc(NCc3ccc(NCC4CCN(C)CC4)nc3)cc12` [Example 1178, 5-(((8-methoxynaphthalen-2-yl)amino)methyl)-N-((1-methylpiperidin-4-yl)methyl)pyridin-2-amine], the IC50 is > 100 µM. For the compound `COc1ccc2cc(NCc3ccc(NCC4CCN(C)CC4)nc3)ccc2c1` [Example 1180, 5-(((6-methoxynaphthalen-2-yl)amino)methyl)-N-((1-methylpiperidin-4-yl)methyl)pyridin-2-amine], the IC50 is > 100 µM. Consider `CN1CCC(CNc2ccc(CNc3cnc4ccccc4c3)cn2)CC1` [Example 1183, N-((6-(((1-methylpiperidin-4-yl)methyl)amino)pyridin-3-yl)methyl)quinolin-3-amine], for which the IC50 was > 100 µM. Still for that read-out and setting: the same measure for `CN1CCC(CNc2ccc(CNc3ccc(N(C)C)nn3)cn2)CC1` [Example 1186, N3,N3-dimethyl-N6-((6-(((1-methylpiperidin-4-yl)methyl)amino)pyridin-3-yl)methyl)pyridazine-3,6-diamine]: > 100 µM. Turning to `CN1CCC(CNc2ccc(CNc3cnc4cccnn34)cn2)CC1` [Example 1187, N-((6-(((1-methylpiperidin-4-yl)methyl)amino)pyridin-3-yl)methyl)imidazo[1,2-b]pyridazin-3-amine], the IC50 was > 100 µM. Regarding `CN1CCC(CNc2ccc(CNc3cccn4ccnc34)cn2)CC1` [Example 1190, N-((6-(((1-methylpiperidin-4-yl)methyl)amino)pyridin-3-yl)methyl)imidazo[1,2-a]pyridin-8-amine], the IC50 is > 100 µM. As to `CN1CCC(CNc2ccc(CNc3ccc4[nH]cnc4c3F)cn2)CC1` [Example 1191, 4-fluoro-N-((6-(((1-methylpiperidin-4-yl)methyl)amino)pyridin-3-yl)methyl)-1H-benzo[d]imidazol-5-amine], the IC50 is > 100 µM. Consider `CN1CCC(CNc2ccc(CNc3nc4ccccc4n3C)cn2)CC1` [Example 1192, 1-methyl-N-((6-(((1-methylpiperidin-4-yl)methyl)amino)pyridin-3-yl)methyl)-1H-benzo[d]imidazol-2-amine], for which the concentration for half-maximal inhibition (IC50) is > 100 µM. Still for that read-out and setting: the same measure for `CN1CCC(CNc2ccc(CNc3cc4c(=O)[nH]ccn4c3)cn2)CC1` [Example 1199, 7-(((6-(((1-methylpiperidin-4-yl)methyl)amino)pyridin-3-yl)methyl)amino)pyrrolo[1,2-a]pyrazin-1(2H)-one]: > 100 µM; for `COc1cccc2sc(NCc3ccc(NCC4CCN(C)CC4)nc3)nc12` [Example 1200, 4-methoxy-N-((6-(((1-methylpiperidin-4-yl)methyl)amino)pyridin-3-yl)methyl)benzo[d]thiazol-2-amine]: > 100 µM; for `CN1CCC(CNc2ccc(CNc3cc(C(=O)O)c4cnccc4c3)cn2)CC1` [Example 1203, 6-(((6-(((1-methylpiperidin-4-yl)methyl)amino)pyridin-3-yl)methyl)amino)isoquinoline-8-carboxylic acid]: > 100 µM. For `CN1CCC(CNc2ccc(CNc3cc(C(=O)O)c4[nH]cc(Cl)c4c3)cn2)CC1` [Example 1204, 3-chloro-5-(((6-(((1-methylpiperidin-4-yl)methyl)amino)pyridin-3-yl)methyl)amino)-1H-indole-7-carboxylic acid], the half-inhibitory concentration (IC50) was > 100 µM. Turning to `CNC(=O)c1cc(NCc2ccc(NCC3CCN(C)CC3)nc2)cc2ccncc12` [Example 1210, N-methyl-6-(((6-(((1-methylpiperidin-4-yl)methyl)amino)pyridin-3-yl)methyl)amino)isoquinoline-8-carboxamide], the IC50 is > 100 µM.

As for `CN1CCC(CNc2ccc(CNc3cnc4[nH]cc(C#N)c4c3)cn2)CC1` [Example 1212, 5-(((6-(((1-methylpiperidin-4-yl)methyl)amino)pyridin-3-yl)methyl)amino)-1H-pyrrolo[2,3-b]pyridine-3-carbonitrile], the IC50 was > 100 µM. On to `CN1CCC(CNc2ccc(CNc3ccc(F)c4cnccc34)cn2)CC1` [Example 1214, 8-fluoro-N-((6-(((1-methylpiperidin-4-yl)methyl)amino)pyridin-3-yl)methyl)isoquinolin-5-amine], for which the half-inhibitory concentration (IC50) is > 100 µM. On to `Cc1cc(NCc2ccc(NCC3CCN(C)CC3)nc2)c2cc[nH]c2c1` [Example 1215, 6-methyl-N-((6-(((1-methylpiperidin-4-yl)methyl)amino)pyridin-3-yl)methyl)-1H-indol-4-amine], for which the IC50 was > 100 µM.

The values are drawn from patent publication US20240059691A1 (KALVISTA PHARMACEUTICALS LIMITED, priority 2020, published 2024).
